From ChEMBL document CHEMBL5223162, “Discovery of Pyrazolopyridine Derivatives as HPK1 Inhibitors” (ACS Med Chem Lett, 2023)
pIC50, pKi: −log10 of the molar value.

Assays:
[1] = Clearance in cynomolgus monkey at 1 mg/kg, iv and measured upto 24 hrs by LC-MS/MS analysis; assay type: ADME, organism-based, Macaca fascicularis; conditions: in vivo
[2] = target: T1, Cytochrome P450 1A2 (Homo sapiens, UniProt P05177); assay: Inhibition of CYP1A2 in human liver microsomes using 7- ethoxyresorufin as substrate by LC-MS analysis; assay type: ADME, Microsome
T1 sequence (P05177 whole entry): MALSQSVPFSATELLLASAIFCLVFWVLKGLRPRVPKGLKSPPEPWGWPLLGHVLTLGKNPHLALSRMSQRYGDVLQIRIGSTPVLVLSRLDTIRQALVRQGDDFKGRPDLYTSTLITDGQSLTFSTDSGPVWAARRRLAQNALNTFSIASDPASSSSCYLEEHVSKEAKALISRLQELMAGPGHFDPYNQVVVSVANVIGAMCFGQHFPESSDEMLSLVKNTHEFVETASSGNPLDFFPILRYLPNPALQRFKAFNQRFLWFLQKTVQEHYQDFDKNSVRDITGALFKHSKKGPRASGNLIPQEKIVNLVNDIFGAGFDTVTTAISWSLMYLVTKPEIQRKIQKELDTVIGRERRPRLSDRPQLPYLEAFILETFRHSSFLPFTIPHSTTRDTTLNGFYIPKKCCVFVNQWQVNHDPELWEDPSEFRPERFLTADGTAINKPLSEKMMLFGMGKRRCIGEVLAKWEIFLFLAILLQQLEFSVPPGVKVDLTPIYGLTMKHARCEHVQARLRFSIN

[3] = target: T2, Cytochrome P450 2C8 (Homo sapiens, UniProt P10632); assay: Inhibition of CYP2C8 in human liver microsomes using amodiaquine as substrate by LC-MS analysis; assay type: ADME, Microsome
T2 sequence (P10632 whole entry): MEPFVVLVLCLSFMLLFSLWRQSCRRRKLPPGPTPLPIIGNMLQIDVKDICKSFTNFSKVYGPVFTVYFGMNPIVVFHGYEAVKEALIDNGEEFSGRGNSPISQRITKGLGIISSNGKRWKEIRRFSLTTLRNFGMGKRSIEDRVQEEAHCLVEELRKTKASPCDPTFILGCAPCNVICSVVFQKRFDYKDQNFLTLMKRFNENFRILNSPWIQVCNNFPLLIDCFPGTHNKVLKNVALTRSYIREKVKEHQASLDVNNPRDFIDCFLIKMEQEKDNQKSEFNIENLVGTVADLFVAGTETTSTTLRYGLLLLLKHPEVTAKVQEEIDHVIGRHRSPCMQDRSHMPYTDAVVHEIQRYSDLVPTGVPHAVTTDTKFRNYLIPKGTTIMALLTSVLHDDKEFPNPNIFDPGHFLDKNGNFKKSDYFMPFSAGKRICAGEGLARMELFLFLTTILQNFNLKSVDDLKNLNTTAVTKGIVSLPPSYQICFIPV

[4] = target: Cytochrome P450 3A4 (Homo sapiens, UniProt P08684); assay: Inhibition of CYP3A4 in human liver microsomes using testosterone as substrate by LC-MS analysis; assay type: ADME, Microsome
Cytochrome P450 3A4, sequence (P08684 whole entry): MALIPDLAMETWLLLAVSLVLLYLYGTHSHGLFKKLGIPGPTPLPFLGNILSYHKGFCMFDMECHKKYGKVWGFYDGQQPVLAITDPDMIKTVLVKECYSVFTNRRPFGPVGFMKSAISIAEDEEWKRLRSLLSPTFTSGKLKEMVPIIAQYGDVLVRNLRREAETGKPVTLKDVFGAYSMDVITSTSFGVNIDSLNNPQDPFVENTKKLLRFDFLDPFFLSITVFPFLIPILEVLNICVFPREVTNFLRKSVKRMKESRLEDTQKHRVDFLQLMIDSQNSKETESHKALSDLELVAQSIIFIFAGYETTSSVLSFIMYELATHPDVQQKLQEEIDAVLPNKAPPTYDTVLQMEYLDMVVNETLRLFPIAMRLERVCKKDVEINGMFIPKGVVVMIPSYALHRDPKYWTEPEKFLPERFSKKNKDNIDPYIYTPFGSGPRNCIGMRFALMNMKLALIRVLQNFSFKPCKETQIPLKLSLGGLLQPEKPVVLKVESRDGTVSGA

[5] = Oral bioavailability in cynomolgus monkey at 3 mg/kg and measured upto 24 hrs by LC-MS/MS analysis; assay type: ADME, organism-based, Macaca fascicularis; conditions: in vivo
[6] = target: Cytochrome P450 2C19 (Homo sapiens, UniProt P33261); assay: Inhibition of CYP2C19 in human liver microsomes using S mephenytoin as substrate by LC-MS analysis; assay type: ADME, Microsome
Cytochrome P450 2C19, sequence (P33261 whole entry): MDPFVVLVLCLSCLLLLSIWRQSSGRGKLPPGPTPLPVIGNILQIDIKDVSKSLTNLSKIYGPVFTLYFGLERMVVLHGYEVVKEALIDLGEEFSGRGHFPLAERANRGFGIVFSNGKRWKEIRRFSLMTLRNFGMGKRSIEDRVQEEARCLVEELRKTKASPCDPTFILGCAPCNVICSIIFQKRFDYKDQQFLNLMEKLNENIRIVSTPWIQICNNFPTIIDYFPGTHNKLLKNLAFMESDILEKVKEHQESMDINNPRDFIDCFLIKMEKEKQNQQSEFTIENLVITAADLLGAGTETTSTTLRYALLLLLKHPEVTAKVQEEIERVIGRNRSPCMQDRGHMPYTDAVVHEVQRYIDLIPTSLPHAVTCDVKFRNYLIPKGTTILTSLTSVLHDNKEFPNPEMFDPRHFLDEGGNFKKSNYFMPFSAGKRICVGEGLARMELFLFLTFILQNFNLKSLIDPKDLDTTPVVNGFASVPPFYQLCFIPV

[7] = Volume of distribution at steady state in cynomolgus monkey at 1 mg/kg, iv and measured upto 24 hrs by LC-MS/MS analysis; assay type: ADME, organism-based, Macaca fascicularis; conditions: in vivo
[8] = AUC in cynomolgus monkey at 3 mg/kg, po and measured upto 24 hrs by LC-MS/MS analysis; assay type: ADME, organism-based, Macaca fascicularis; parameters: dose 3 mg/kg, time < 24 hrs, route po; conditions: in vivo
[9] = Half life in cynomolgus monkey at 1 mg/kg, iv and measured upto 24 hrs by LC-MS/MS analysis; assay type: ADME, organism-based, Macaca fascicularis; conditions: in vivo
[10] = AUC in Sprague-Dawley rat at 3 mg/kg, po and measured upto 24 hrs by LC-MS/MS analysis; assay type: ADME, organism-based; parameters: dose 3 mg/kg, time < 24 hrs, route po; conditions: in vivo
[11] = target: T3, Mitogen-activated protein kinase kinase kinase kinase 1 (Homo sapiens, UniProt Q92918); assay: Binding affinity to recombinant human HPK1 (1 to 346 residues) expressed sf9 cells incubated for 1 hr by LanthaScreen assay
T3 sequence (Q92918 whole entry, the tested form may be a part): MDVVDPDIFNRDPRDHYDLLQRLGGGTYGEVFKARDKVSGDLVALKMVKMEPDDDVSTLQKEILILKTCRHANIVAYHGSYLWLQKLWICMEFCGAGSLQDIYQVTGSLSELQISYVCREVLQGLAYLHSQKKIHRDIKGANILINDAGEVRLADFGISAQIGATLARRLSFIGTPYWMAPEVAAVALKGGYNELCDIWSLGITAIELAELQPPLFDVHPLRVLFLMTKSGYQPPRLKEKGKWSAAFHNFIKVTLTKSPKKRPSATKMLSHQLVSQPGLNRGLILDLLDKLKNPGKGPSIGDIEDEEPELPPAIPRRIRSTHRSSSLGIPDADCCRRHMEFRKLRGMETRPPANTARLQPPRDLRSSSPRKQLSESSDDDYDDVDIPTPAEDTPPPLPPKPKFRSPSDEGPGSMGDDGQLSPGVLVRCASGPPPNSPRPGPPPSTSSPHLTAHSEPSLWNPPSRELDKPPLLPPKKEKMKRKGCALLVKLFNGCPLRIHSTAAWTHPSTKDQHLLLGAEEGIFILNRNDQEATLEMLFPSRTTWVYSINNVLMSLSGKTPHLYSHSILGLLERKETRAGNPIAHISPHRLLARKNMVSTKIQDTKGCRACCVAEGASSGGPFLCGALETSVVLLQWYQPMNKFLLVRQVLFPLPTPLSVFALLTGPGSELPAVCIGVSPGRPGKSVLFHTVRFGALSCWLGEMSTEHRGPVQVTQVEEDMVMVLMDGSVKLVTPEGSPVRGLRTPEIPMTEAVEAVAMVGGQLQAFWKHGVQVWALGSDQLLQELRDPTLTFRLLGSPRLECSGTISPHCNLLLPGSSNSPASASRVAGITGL

[12] = Fraction unbound in human plasma by LC-MS/MS analysis; assay type: ADME, cell-free
[13] = Permeability across apical to basolateral side in human Caco2 cells at 50 uM and measured after 120 mins by LC-MS analysis; assay type: ADME, cell-based; conditions: Caco-2, read-out: permeability
[14] = target: hERG (KCNH2) (Homo sapiens, UniProt Q12809); assay: Inhibition of human ERG at 5 uM by patch-clamp assay; assay type: toxicity
hERG (KCNH2), sequence (Q12809 whole entry): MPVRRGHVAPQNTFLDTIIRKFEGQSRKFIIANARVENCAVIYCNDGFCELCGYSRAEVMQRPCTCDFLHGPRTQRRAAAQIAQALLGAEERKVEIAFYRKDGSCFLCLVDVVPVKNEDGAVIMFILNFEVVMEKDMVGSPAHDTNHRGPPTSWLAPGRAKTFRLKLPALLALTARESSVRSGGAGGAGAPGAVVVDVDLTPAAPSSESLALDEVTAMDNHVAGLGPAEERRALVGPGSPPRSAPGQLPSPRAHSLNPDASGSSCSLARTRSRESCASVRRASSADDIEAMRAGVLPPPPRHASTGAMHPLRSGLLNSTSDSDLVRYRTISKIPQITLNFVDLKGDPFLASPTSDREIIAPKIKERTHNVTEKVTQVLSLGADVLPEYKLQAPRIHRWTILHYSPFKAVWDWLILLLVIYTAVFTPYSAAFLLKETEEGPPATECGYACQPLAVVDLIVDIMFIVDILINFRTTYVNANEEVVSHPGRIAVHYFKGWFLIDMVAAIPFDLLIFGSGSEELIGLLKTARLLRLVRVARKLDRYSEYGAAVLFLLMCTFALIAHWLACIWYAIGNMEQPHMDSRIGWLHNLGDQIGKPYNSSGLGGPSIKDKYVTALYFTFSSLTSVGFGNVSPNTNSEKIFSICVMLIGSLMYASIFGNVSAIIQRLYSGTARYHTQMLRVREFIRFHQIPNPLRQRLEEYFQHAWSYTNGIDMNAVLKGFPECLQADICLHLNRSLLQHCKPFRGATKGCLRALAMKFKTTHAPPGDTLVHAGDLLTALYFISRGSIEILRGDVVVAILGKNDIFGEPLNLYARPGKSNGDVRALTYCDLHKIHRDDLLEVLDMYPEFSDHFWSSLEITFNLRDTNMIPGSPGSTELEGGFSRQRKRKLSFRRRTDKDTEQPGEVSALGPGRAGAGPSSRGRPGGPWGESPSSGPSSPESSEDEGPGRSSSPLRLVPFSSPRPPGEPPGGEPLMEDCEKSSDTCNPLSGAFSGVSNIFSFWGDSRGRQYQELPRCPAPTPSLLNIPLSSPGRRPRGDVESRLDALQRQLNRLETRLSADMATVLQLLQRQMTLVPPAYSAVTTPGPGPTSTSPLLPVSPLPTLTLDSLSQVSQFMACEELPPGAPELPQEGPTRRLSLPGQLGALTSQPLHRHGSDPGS

[15] = Clearance in Sprague-Dawley rat at 1.5 mg/kg, iv and measured upto 24 hrs by LC-MS/MS analysis; assay type: ADME, organism-based; conditions: in vivo
[16] = target: Cytochrome P450 2C9 (Homo sapiens, UniProt P11712); assay: Inhibition of CYP2C9 in human liver microsomes using diclofenac as substrate by LC-MS analysis; assay type: ADME, Microsome
Cytochrome P450 2C9, sequence (P11712 whole entry): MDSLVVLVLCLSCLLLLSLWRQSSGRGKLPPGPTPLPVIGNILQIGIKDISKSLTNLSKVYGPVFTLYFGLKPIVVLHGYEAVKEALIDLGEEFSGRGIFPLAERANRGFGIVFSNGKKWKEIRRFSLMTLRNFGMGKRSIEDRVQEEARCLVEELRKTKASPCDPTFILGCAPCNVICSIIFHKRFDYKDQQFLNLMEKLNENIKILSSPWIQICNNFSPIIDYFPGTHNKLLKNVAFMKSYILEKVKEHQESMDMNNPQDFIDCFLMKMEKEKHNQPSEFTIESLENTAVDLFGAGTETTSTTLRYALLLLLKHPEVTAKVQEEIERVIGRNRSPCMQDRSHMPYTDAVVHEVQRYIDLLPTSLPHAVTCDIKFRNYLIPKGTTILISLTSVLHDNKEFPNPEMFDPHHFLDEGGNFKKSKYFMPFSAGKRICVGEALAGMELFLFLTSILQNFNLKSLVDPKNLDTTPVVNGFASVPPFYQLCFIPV

[17] = target: T4, Cytochrome P450 2B6 (Homo sapiens, UniProt P20813); assay: Inhibition of CYP2B6 in human liver microsomes using bupropion as substrate by LC-MS analysis; assay type: ADME, Microsome
T4 sequence (P20813 whole entry): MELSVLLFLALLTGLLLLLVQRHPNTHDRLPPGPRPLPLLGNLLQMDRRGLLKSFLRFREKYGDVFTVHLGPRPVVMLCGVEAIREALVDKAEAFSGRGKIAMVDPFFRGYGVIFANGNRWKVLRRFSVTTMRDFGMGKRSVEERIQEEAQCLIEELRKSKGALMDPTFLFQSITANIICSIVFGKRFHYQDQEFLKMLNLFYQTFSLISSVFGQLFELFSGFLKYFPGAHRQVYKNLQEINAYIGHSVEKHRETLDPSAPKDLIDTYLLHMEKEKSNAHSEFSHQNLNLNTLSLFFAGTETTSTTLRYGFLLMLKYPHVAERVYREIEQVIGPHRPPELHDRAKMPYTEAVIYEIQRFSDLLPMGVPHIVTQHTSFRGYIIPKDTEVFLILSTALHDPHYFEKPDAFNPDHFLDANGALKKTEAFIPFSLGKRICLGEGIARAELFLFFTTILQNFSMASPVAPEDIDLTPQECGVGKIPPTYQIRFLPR

[18] = target: Cytochrome P450 2D6 (Homo sapiens, UniProt P10635); assay: Inhibition of CYP2D6 in human liver microsomes using bufuralol as substrate by LC-MS analysis; assay type: ADME, Microsome
Cytochrome P450 2D6, sequence (P10635 whole entry): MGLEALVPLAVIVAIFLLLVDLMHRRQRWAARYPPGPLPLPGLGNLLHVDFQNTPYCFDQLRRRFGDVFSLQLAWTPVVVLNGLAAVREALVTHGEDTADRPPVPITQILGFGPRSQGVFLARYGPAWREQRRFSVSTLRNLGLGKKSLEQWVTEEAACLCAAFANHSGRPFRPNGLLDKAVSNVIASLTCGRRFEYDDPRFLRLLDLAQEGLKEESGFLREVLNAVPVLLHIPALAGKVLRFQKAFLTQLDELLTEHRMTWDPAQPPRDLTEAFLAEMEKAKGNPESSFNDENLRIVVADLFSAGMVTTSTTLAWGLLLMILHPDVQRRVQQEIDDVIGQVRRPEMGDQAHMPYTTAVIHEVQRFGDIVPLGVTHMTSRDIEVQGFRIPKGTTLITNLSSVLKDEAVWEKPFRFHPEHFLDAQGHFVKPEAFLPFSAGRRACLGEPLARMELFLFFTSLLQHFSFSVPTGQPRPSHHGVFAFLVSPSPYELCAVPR

[19] = target: T3, Mitogen-activated protein kinase kinase kinase kinase 1; assay: Inhibition of human HPK1 in human whole blood assessed as reduction in SLP76 phosphorylation incubated for 1 hr by HTRF assay; assay type: tissue-based
[20] = target: T3, Mitogen-activated protein kinase kinase kinase kinase 1; assay: Inhibition of human HPK1 in human Jurkat cells assessed as reduction in SLP76 phosphorylation incubated for 1 hr by HTRF assay; assay type: cell-based
[21] = Intrinsic clearance in human liver microsomes at 1 uM and measured upto 30 mins in presence of NADPH by LC-MS analysis; assay type: ADME, Microsome; conditions: read-out: CLH (converted)

clearance [1]: 15.8 mL/min/kg
pIC50 [2]: < 4.82
pIC50 [3]: < 4.82
pIC50 [4]: < 4.82
bioavailability [5]: 96%
pIC50 [6]: < 4.82
Vdss [7]: 4 L/kg
AUC at 24 h [8]: 9.77 µM·h
half-life [9]: 6 h
AUC at 24 h [10]: 1.1 µM·h
pKi [11]: 8.39
fraction unbound [12]: 0.43
Papp A→B at 2 h, 50 µM [13]: 3.1 ×10⁻⁶ cm/s
clearance [15]: 102 mL/min/kg
pIC50 [16]: < 4.82
pIC50 [17]: < 4.82
pIC50 [18]: < 4.82
pIC50 [19]: 6.52
pIC50 [20]: 6.84
CLint scaled at 1 µM [21]: 8.33 mL/min/kg
Compound: Cc1cc(CN2CCC2)cc(F)c1-c1cc2c(-c3cnn(C)c3)n[nH]c2cn1
inhibition at 5 µM [14]: 5%
